Consider 87 molecules from a melting point compilation (Tetko et al.; mined from patent text by program, amines drawn as free bases though some values may be those of a salt).

What is called melting point is the temperature of the solid-liquid transition.

`c1ccc(Cc2cnc(-c3ccccc3)c(-c3ccccc3)n2)cc1` showed a melting point of 118 to 119 °C.
In the case of `OCC1OC(n2cnc3c(N4CCCC4)nc(Cl)nc32)C(O)C1O` (configuration not stated), the melting point turned out to be 229 °C.
`Cc1c(N2CC[C@H](N(C)C)C2)c(F)c(N)c2c(=O)c(C(=O)O)cn(C3CC3)c12` came in with a melting point of 204 to 206 °C.
On to `CCc1[nH]n(C2CCCC2)c2nc(-c3cccc(OCC(=O)N4CCOCC4)c3)nc(=O)c1-2`, for which the melting point was in the range of 212 to 213 °C.
The value for `CC(=O)c1ccc(CNC(=O)c2cccnc2Oc2ccc3nonc3c2)cc1` was 154 to 156 °C; that for `CC(=O)c1c(C(C)C)nn2c(C)cccc12` was 67.5 to 68 °C; that for `Cc1cc(-c2c(-c3ccc(S(N)(=O)=O)cc3)cnn(-c3ccc(F)cc3)c2=O)ccc1F` was 202 to 204 °C.
`Oc1cccc2c1CCC(O)C2` (configuration not stated) had a melting point of 126 to 128 °C.
With `Cc1nc(N2CCN(CC3CC3(F)F)C2=O)sc1-c1cc[nH]n1` (configuration not stated), the melting point lay in the range of 227 to 230 °C.
`CCCCCCNC(=O)Oc1cccc(NC(=O)CC(C)=O)c1` returned a melting point of 125 °C.
`COC(=O)NNC(=S)Cc1cccc(C(F)(F)F)c1` displayed a melting point of 131 to 132 °C.
The value for `N#Cc1ccc(N(Cc2ccccc2)n2cnnc2)cc1-c1ccc(OS(N)(=O)=O)cc1` was 157 to 160 °C.
The value for `Cc1cc(C(F)(F)F)n2nc(SCc3ccccc3)nc2n1` was 83.5 to 84.5 °C; that for `C=CCCc1ccc(C=NN=Cc2ccc(CCC=C)cc2)cc1` was 57 °C.
The result for `O=C1CCCN1CCCNCc1ccc(-c2cc3ncnc(Nc4ccc5[nH]ccc5c4)c3s2)cc1` reads 139 to 146 °C; that for `O=C(c1ccc(-c2ccccc2)cc1)n1c2cc(O)c(O)cc2c2ccc(O)c(O)c21`, 291 to 294 °C; that for `COC(=O)Oc1c(OC)cc(OC)c2ccccc12`, 128 to 129 °C.
For the molecule `CSc1ncc2ccc(N)nc2n1`, the melting point was > 250 °C.
The value for `CN(c1ccc(Cl)cc1)S(=O)(=O)c1cccc(C(=O)Nc2ccc(Cl)cc2C#N)c1` was 157 to 158 °C; that for `COc1cc(Nc2nccc(NS(=O)(=O)c3ccccc3)n2)cc(OC)c1OC` was 164 °C.
The value for `CCOC(=O)C=Cc1ccc(Cl)cc1N(CC(=O)c1ccc(Cl)cc1)S(=O)(=O)c1ccc(C)cc1` was 162 to 165 °C; that for `CSc1nc(Br)cc(Oc2cccc(C(F)(F)F)c2)n1` was 70 to 71 °C; that for `O=C(c1ccccc1)c1ccc(Nc2nc(Nc3ccc(C(=O)c4ccccc4)cc3)nc(-c3cccn3Cc3ccccc3)n2)cc1` was 115 to 118 °C.
In the case of `CC(=O)CC(=S)NCC(=O)N1CCC[C@H]1C(=O)O`, the melting point was > 320 °C.
The result for `CCCCOC(=O)COc1cc(F)c([N+](=O)[O-])cc1[N+](=O)[O-]` reads 113 to 115 °C.
The value for `Nc1ccc(Nc2ccc([N+](=O)[O-])cc2S(=O)(=O)CCO)cc1` was 147 to 149 °C.
The value for `Cc1c(CC[Si](Cl)(Cl)Cl)c(CC[Si](Cl)(Cl)Cl)c(C)c(CC[Si](Cl)(Cl)Cl)c1CC[Si](Cl)(Cl)Cl` was 220 to 224 °C.
Consider `COc1ncccc1C(=O)NCCc1ccncc1`, for which the melting point lay in the range of 84 to 87 °C.
The result for `Cc1c(N2C[C@H](CF)[C@H](N)C2)c(F)cc2c(=O)c(C(=O)O)cn(C3CC3)c12` reads 160 to 165 °C; that for `Cc1ccccc1CCC(=O)NCc1ncc(C(F)(F)F)cc1Cl`, 152 to 153 °C.
With `CC(C)(C)c1ccc(Cn2c(=S)n(Cc3ccc(NS(C)(=O)=O)cc3)c3ccccc32)cc1`, the melting point lay in the range of 176 to 178 °C.
The value for `COc1ccccc1C(CO)c1c[nH]c2c(=O)[nH]c(N)nc12` (configuration not stated) was 262 to 265 °C.
`COc1cc(OC)c2c(C)c(CCN3CCN(c4cccc(C(F)(F)F)c4)CC3)c(=O)oc2c1` returned a melting point of 138 to 139 °C.
The result for `CCc1cccc(C)c1CNc1cc(C(=O)O)cn2c(C)nnc12` reads 328 °C.
The molecule `O=[N+]([O-])c1ccc2c(c1)C(c1ccccc1F)=NCc1nc(CO)cn1-2` showed a melting point of 230 to 231 °C.
Regarding `Cc1ccc(C)c2c1CN(NC(=S)NC(=O)c1ccccc1)C2`, the melting point lay in the range of 163 to 164 °C.
The value for `N#Cc1ccc(NC2CCN(Cc3cccc(C(F)(F)F)c3)CC2)nn1` was 170 °C.
For `O=C(Cc1ccccc1)NC(SC(=O)c1ccccc1)C(=O)O` (configuration not stated), the melting point was 133 to 138 °C.
The value for `N#Cc1nn(-c2c(Cl)cc(C(F)(F)F)cc2Cl)c(Cl)c1C=C(Br)Br` was 119 to 120 °C.
The result for `Cc1ccc(OC(CCCCCc2ccc(Cl)cc2)C(=O)O)cc1` (configuration not stated) reads 74 to 76 °C.
The result for `O=C1CCCc2onc(-c3ccccc3[N+](=O)[O-])c21` reads 125 to 127 °C; that for `O=C1c2ccc([N+](=O)[O-])cc2C(=O)N1C1CCN(C2CCCCC2)CC1`, 265 to 270 °C.
Regarding `O=C(Nc1ccc(-n2nc(C3CC3)cc2C2CC2)cc1)c1ccncc1F`, the melting point was in the range of 135 to 139 °C.
In turn, `O=C(CN1CCNCC1)Nc1ccc2c(c1)C(=O)c1cc(NC(=O)CN3CCNCC3)ccc1C2=O` registered a melting point of 173 °C.
The result for `CCCc1cc2c(=O)n3cc(C#N)ccc3nc2s1` reads 217 to 218 °C.
The result for `CN(C[C@@H](CCO)c1ccc(Cl)c(Cl)c1)C(=O)c1ccccc1` reads 123 to 125 °C; that for `CCOC(=O)C(=CNc1ccc(C)cc1CO)C(=O)OCC`, 92 to 95 °C.
The result for `CCOP(=O)(CCN1CCC(N(CCN)S(=O)(=O)c2ccc(Nc3nccc(Nc4ccc(F)c(F)c4)n3)cc2)CC1)OCC` reads 88 to 90 °C; that for `CNC(Cc1ccccc1N)C(=O)c1ccc(OC)c(OC)c1` (configuration not stated), 128 to 131 °C; that for `Clc1ccc2c(ccn2C2=CCN(CCC3Cc4ccccc4C3)CC2)c1`, 93 to 94 °C.
For `O=c1[nH]c2sc(Cl)c(Cl)c2[nH]c1=O`, the melting point is > 300 °C.
The result for `CCCC(=NOCC)C1=C(O)CC(c2cc3ccccc3o2)CC1=O` (configuration not stated) reads 70 °C; that for `COc1cc2c(-c3ccccc3)csc2c(Cl)c1Cl`, 117 to 119 °C; that for `CC(=O)OC(C)c1ccc(CCOc2ccc(CC3SC(=O)NC3=O)cc2)nc1` (configuration not stated), 143 to 144 °C.
The result for `CC(C)(C)OC(=O)N1[C@@H](C(=O)O)CC[C@H]1c1ccccc1` (racemic) reads 113 to 117 °C.
The result for `COc1ccc(C(=O)N[C@H]2CCN(C)C[C@H]2c2ccc3c(c2)OCO3)cc1OC` (relative stereo) reads 193 to 194 °C.
The molecule `CCCCc1c2c(cc3ccc(O)cc13)-c1ccc(O)cc1CO2` yielded a melting point of 187 to 189 °C.
As for `Cc1cc(C)c(S(=O)(=O)n2c(CCC(=O)O)cc3cc(Cl)ccc32)c(C)c1`, the melting point was in the range of 132 to 134 °C.
The result for `Nc1c([N+](=O)[O-])cnn1-c1c(F)c(F)c(C(F)(F)F)c(F)c1F` reads 123 to 126 °C; that for `CCOC(=O)c1cccc2c(=O)cc(-c3ccc(OCc4ncc5ccccc5n4)cc3)oc12`, 265 to 266 °C; that for `c1ccc(-c2cc(NC3=NCCN3)n(-c3ccccc3)n2)cc1`, 228 to 230 °C.
As to `O=C1Cc2cccc(-c3ccccc3)c2N1`, the melting point lay within 167 to 169 °C.
The result for `C=C(C)C(=O)OCCOc1ccc(-c2cc(OC(=O)C(=C)C)cc(-c3ccc(OCCOC(=O)C(=C)C)cc3)c2)cc1` reads 99 °C; that for `CC(=O)c1ccc(NCc2cc3c(cc2O)CCO3)cc1`, 181 to 183 °C; that for `c1ccc(C2COc3cccc4c5c(OCCN6CCNCC6)cccc5n2c34)cc1` (configuration not stated), 72 °C.
Molecule `COc1ccc(CCNC(C)=O)cc1OC1CCCC1` registered a melting point of 87 to 88 °C.
`Cc1[nH]n(C2CCC2)c2nc(-c3ccncc3)nc(=O)c1-2` had a melting point of 289 to 290 °C.
`COc1ccccc1-c1cccc(C#N)c1` gave a melting point of 58 °C.
`Cn1cc(-c2cccc(F)c2)c(=O)c(-c2cccc(F)c2)c1` gave a melting point of 149 to 151 °C.
The result for `CC(C)(C)NCC(O)c1ccc(O)c(C(O)CO)c1` (configuration not stated) reads 190 to 192 °C; that for `Cn1c(S)nc(-c2ccncc2)cc1=O`, 250 to 252 °C.
The value for `Cc1nn(-c2cc3nc(S(=O)(=O)Cc4ccccc4Cl)sc3cc2Cl)c(=O)n1C(F)F` was 196 to 198 °C.
`COc1cc(NC(=O)OC(C)(C)C)c(NC(=O)CC(=O)c2cccc(-n3ccnc3)c2)cc1-c1ccc(F)cc1C` returned a melting point of 99 to 102 °C.
The value for `CC1(C)CC(=O)C(C(=S)Nc2ccc(Cl)c(Cl)c2)C(=O)C1` was 113 to 116 °C.
The result for `CC1(C)CCCN(C2c3cc4nonc4cc3OC(C)(C)C2O)C1=O` (configuration not stated) reads 114 to 115 °C.
As for `CSc1ccc(CN2C(=O)C3(COc4cc5c(cc43)OCO5)c3ccccc32)cc1` (configuration not stated), the melting point was 128 to 130 °C.
The result for `ClC(=NNc1ccccc1)c1c(Cl)cccc1Cl` reads 95.5 to 96.5 °C; that for `CCCCCCCCCCCCCCCCOCC(O)CCSCCCN(C)C` (configuration not stated), 30 to 32 °C; that for `CCCc1cn2c(=O)c(C(=O)OCC)cnc2c2cc(OC)ccc12`, 187 to 188 °C.
The result for `COc1cc(N2C(=O)N3CCCCC3C2O)c(F)cc1Cl` (configuration not stated) reads 155 to 157 °C; that for `c1cncc(-c2ccc3nncn3c2)c1`, 200 to 202 °C.
The value for `COc1ccc(C2CCN(C)CC2)cc1Nc1ncc2ccc(-c3ccccc3OC)n2n1` was 64 to 69 °C.
For the molecule `CNS(=O)(=O)Cc1ccc2[nH]ccc2c1`, the melting point was 127 to 129 °C.
`O=C(NCC(c1ccccc1)c1ccccc1)C1Cc2ccccc2N1S(=O)(=O)c1ccc(-c2ccc(F)cc2)cc1` (configuration not stated) returned a melting point of 80 to 82 °C.
In the case of `CC(C)C(=O)NCC(=O)c1ccco1`, the melting point was 78 to 80 °C.
The result for `Nc1nc(Cl)c2ncn(COCCOC(=O)c3ccccc3)c2n1` reads 130 to 134 °C; that for `Fc1cc2c(cc1F)CC(n1cc[nH]c1=S)CC2` (configuration not stated), 206 to 207 °C.
